# Experiment: Agonist activity beta2-adrenergic receptor in rat ventricular myocytes assessed as cell contraction following electrical stimulation by optical edge tracking method using photodiode array
row,Structure (SMILES),EC50 [nM]
1,CC[C@H](Cc1ccc(O)cc1)NC[C@H](O)c1cc(O)cc(O)c1,8550
2,C[C@H](Cc1ccc2ccccc2c1)NC[C@H](O)c1cc(O)cc(O)c1,133
3,COc1ccc(C[C@@H](C)NC[C@H](O)c2cc(O)cc(O)c2)c2ccccc12,16

# — BindingDB's records for doi:10.1016/j.bmc.2009.11.062 (Medical University of Lublin, 2010)
